Data as given in patent publication US9295739B2, “Folate conjugates of albumin-binding entities” (MERCK & CIE, priority 2011, dated 2016).

Tests used:
KB tumor xenografts = assay: Ex vivo biodistribution of [18F]FDG-AB-folate in nude mice bearing KB tumor xenografts; settings: 2 h p.i., n = 3
Method: In vivo experiments were performed in female nude mice bearing KB tumor xenografts.
Animals were injected with ˜3 MBq of [^18F]FDG-AB-folate 34 via a lateral tail vein. Animals were sacrificed 2 h after radiotracer injection. Organs- and tissues were dissected and measured in the γ-counter (Wizard, PerkinElmer). The incorporated radioactivity was expressed as percentage injected dose (% ID) per gram of tissue.

[1] = log D7.4 by the shake flask method; format: physicochemical

Blood (KB tumor xenografts): 2.93 ± 0.55 % ID/g
Bone (KB tumor xenografts): 1.50 ± 0.24 % ID/g
Brain (KB tumor xenografts): 0.89 ± 0.17 % ID/g
Feces (KB tumor xenografts): 53.02 ± 26.52 % ID/g
Gallbladder (KB tumor xenografts): 83.78 ± 16.78 % ID/g
Heart (KB tumor xenografts): 3.20 ± 0.53 % ID/g
Intestine (KB tumor xenografts): 8.84 ± 7.07 % ID/g
Kidneys (KB tumor xenografts): 14.98 ± 1.47 % ID/g
Liver (KB tumor xenografts): 7.14 ± 0.78 % ID/g
Lungs (KB tumor xenografts): 2.44 ± 0.58 % ID/g
Muscle (KB tumor xenografts): 1.62 ± 0.26 % ID/g
Ratio Tumor/Blood (KB tumor xenografts): 3.33 ± 0.59
Ratio Tumor/Kidneys (KB tumor xenografts): 0.64 ± 0.07
Ratio Tumor/Liver (KB tumor xenografts): 1.34 ± 0.16
Salivary glands (KB tumor xenografts): 7.55 ± 0.08 % ID/g
Spleen (KB tumor xenografts): 0.81 ± 0.03 % ID/g
Stomach (KB tumor xenografts): 1.93 ± 0.51 % ID/g
Tumor (KB tumor xenografts): 9.51 ± 0.08 % ID/g
log D7.4 value [1]: −3.2±0.4
Structure (SMILES): Nc1nc2ncc(CNc3ccc(C(=O)N[C@@H](CCC(=O)NC(Cc4cn([C@@H]5OC(CO)[C@@H](O)[C@H](O)C5[18F])nn4)C(=O)N[C@@H](CCCCNC(=O)CCCc4ccc(I)cc4)C(=O)O)C(=O)O)cc3)nc2c(=O)[nH]1 (stereo partly shown) [[^18F]FDG-AB-folate]
